15 molecules from patent US7888510B2, “2-′4(phenylamino)-piperidin-1-yl!-n-phenyl-acetamine derivatives and related compounds as neuropeptide Y5 (NPY5) ligands for the treatment of obesity” (Laboratorios del Dr. Esteve S.A., priority 2003, dated 2011) can be followed below.

Each structure is given as a SMILES string. Where a name gives a salt, the structure may show the parent alone.

One data set has as its target T1, rat Y5 receptor (Rattus norvegicus, UniProt Q63634).
T1 construct: expressed in transfected cells; host or cells: C6 cells (membrane preparation)
T1 sequence (Q63634 1-445): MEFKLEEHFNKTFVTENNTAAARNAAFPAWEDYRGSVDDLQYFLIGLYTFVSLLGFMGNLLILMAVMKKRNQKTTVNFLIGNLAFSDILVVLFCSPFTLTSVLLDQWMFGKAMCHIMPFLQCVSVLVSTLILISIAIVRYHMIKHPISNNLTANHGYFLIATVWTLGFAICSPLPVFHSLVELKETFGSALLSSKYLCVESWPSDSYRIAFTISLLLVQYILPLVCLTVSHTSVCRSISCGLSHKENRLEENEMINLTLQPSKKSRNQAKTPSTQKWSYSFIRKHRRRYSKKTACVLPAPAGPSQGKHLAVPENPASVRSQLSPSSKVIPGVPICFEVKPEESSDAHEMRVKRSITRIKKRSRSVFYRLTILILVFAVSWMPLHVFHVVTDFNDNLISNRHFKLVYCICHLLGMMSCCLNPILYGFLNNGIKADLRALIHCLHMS
Description: Neuropeptide Y5 receptor binding ([125I]-PYY displacement, membranes of transfected C6 cells). The following applies: 10^−6 M; membranes of C6 cells transfected with the rat Y5 receptor; radioligand [125I]-PYY 100 pM. On the procedure:
Neuropeptide Y5 Receptor Binding Studies:
The methods used for membrane preparation and binding are similar to those described by Y. Hu, B. T. Bloomquist et al. in Y. Hu, B. T. Bloomquist et al., The Journal of Biological Chemistry, 1996, 271, 26315-26319 with modifications. Said literature description is herewith incorporated by reference and forms part of the disclosure. Cells C6 were transfected with the rat Y5 receptor. The cells were grown under standard culture conditions in 150 cm^2 dishes and they were harvested using a rubber scraper and 10 ml PBS. The cells from five dishes were collected and centrifuged 2.500 g for 5 min (4° C.). The pellet was washed by resuspending in 3 ml buffer (Tris-HCl 10 mM, pH 7.4), homogenized using a Potter S homogenizer, 10 strokes at 600 rpm and centrifuged 48.000 g for 20 min (4° C.). The pellet was resuspended in 8 ml membrane buffer (Tris-HCl 25 mM, NaCl 120 mM, KCl 5 mM, KH2PO4 1.2 mM, CaCl2 2.5 mM, MgSO4 1.2 mM, BSA 0.15 mg/ml, Bacitracine 0.5 mg/ml, pH 7.4) and rehomogenized using the Potter S, 10 strokes at 600 rpm. The protein concentration in the incubation was […]. The radioligand was [^125I]-PYY (100 pM) in a total incubation volume of 200 μl. Following incubation at 25° C. for 2 h, the reaction was stopped by addition of 5 ml ice-cold buffer (Tris-HCl 25 mM, NaCl 120 mM, KCl 5 mM, KH2PO4 1.2 mM, CaCl2 2.5 mM, MgSO4 1.2 mM, pH 7.4) and rapid filtration in a Harvester Brandell Cell using filters (Schleicher & Schuell GF 3362) pretreated for two hours with 0.5% polyethyleneimine. Filters were washed one time with 5 ml ice-cold buffer. The filters were placed into plastic scintilation vials and 5 ml scintilation cocktail Ecoscint H were added. The quantity of radioactivity present was determined in a Wallac Winspectral 1414 counter. Non specific binding was determined in the presence of 1 μM de pNPY. All binding assays were done in triplicate.
On to `Cc1ccc(NC2CCN(CC(=O)Nc3cnc4ccccc4c3)CC2)c(CO)c1` [Example 5, 2-[4-(2-Hydroxymethyl-4-methyl-phenylamino)-piperidin-1-yl]-N-quinolin-3-yl-acetamide], for which the inhibition (commonly the share of the control response that was lost under treatment) at 1 µM turned out to be 86.2%. `Cc1ccc(NC2CCN(CC(=O)Nc3ccc4ncccc4c3)CC2)c(CO)c1` [Example 7, 2-[4-(2-Hydroxymethyl-4-methyl-phenylamino)-piperidin-1-yl]-N-quinolin-6-yl-acetamide] gave an inhibition at 1 µM of 82.3%. Turning to `Cc1cccc(CO)c1NC1CCN(CC(=O)Nc2cnc3ccccc3c2)CC1` [Example 9, 2-[4-(2-Hydroxymethyl-6-methyl-phenylamino)-piperidin-1-yl]-N-quinolin-3-yl-acetamide], at 1 µM the inhibition was 80.4%. Same read-out and setting: in the case of `Cc1cccc(CO)c1NC1CCN(CC(=O)Nc2ccc3ncccc3c2)CC1` [Example 11, 2-[4-(2-Hydroxymethyl-6-methyl-phenylamino)-piperidin-1-yl]-N-quinolin-6-yl-acetamide] it was 73.9%.

As for `O=C(CN1CCC(Nc2ccccc2CO)CC1)Nc1ccc(C(=O)c2ccccc2)cc1` [Example 13, N-(4-Benzoyl-phenyl)-2-[4-(2-hydroxymethyl-phenylamino)-piperidin-1-yl]-acetamide], 1 µM produced 81.5% inhibition. Molecule `Cc1ccc(NC2CCN(CC(=O)Nc3ccc(C(=O)c4ccccc4)cc3)CC2)c(CO)c1` [Example 14, N-(4-Benzoyl-phenyl)-2-[4-(2-hydroxymethyl-4-methyl-phenylamino)-piperidin-1-yl]-acetamide] returned an inhibition at 1 µM of 88.9%. `Cc1cccc(CO)c1NC1CCN(CC(=O)Nc2ccc(C(=O)c3ccccc3)cc2)CC1` [Example 15, N-(4-Benzoyl-phenyl)-2-[4-(2-hydroxymethyl-6-methyl-phenylamino)-piperidin-1-yl]-acetamide] registered an inhibition at 1 µM of 93.2%.

The data set is the same for the next values; noted with them: membranes of C6 cells transfected with the rat Y5 receptor; radioligand [125I]-PYY 100 pM; 25° C., 2 h.
Regarding `CCn1c2ccccc2c2cc(NC(=O)CN3CCC(Nc4c(C)cccc4CO)CC3)ccc21` [Example 1a, N-(9-Ethyl-9H-carbazol-3-yl)-2-[4-(2-hydroxymethyl-6-methyl-phenylamino)-piperidin-yl]acetamide dihydrochloride], the IC50 (commonly the point on the concentration scale where inhibition reaches its midpoint) came to 50 nM. Regarding `Cc1ccc(NC2CCN(CC(=O)Nc3ccc4c(c3)-c3ccccc3C4=O)CC2)c(CO)c1` [Example 2a, 2-[4-(2-Hydroxymethyl-4-methyl-phenylamino)-piperidin-1-yl]-N-(9-oxo-9H-fluoren-3-yl)-acetamide], the IC50 was found to be 80.9 nM. For the molecule `Cc1cccc(CO)c1NC1CCN(CC(=O)Nc2ccc3c(c2)-c2ccccc2C3=O)CC1` [Example 3a, 2-[4-(2-Hydroxymethyl-6-methyl-phenylamino)-piperidin-1-yl]-N-(9-oxo-9H-fluoren-3-yl)-acetamide], the IC50 is 36.3 nM. In turn, `Cc1cccc(CO)c1NC1CCN(CC(=O)Nc2ccc3c(c2)-c2ccccc2C3O)CC1` (stereo not drawn) [Example 5a, N-(9-Hydroxy-9H-fluoren-3-yl)-2-[4-(2-hydroxymethyl-6-methyl-phenylamino)-piperidin-1-yl]-acetamide] showed an IC50 of 40.1 nM.

Test system in the next data set: not given
Experiment: not given
Settings: not given
In the case of `COC(=O)c1ccccc1NC1CCN(CC(=O)Nc2ccc3c(c2)-c2ccccc2C3=O)CC1.Cl`, the melting point (as a rule, the temperature, or range, at which the solid turns liquid) was determined as 258 °C. In turn, `O=C(CN1CCC(Nc2ccccc2CO)CC1)Nc1ccc2c(c1)CCC2=O` returned a melting point of 138 to 140 °C. As for `Cc1ccc(NC2CCN(CC(=O)Nc3ccc4c(c3)-c3ccccc3C4=O)CC2)c(CO)c1` [Example 2a, 2-[4-(2-Hydroxymethyl-4-methyl-phenylamino)-piperidin-1-yl]-N-(9-oxo-9H-fluoren-3-yl)-acetamide], the melting point amounted to 152 °C. `Cc1cccc(CO)c1NC1CCN(CC(=O)Nc2ccc3c(c2)-c2ccccc2C3=O)CC1` [Example 3a, 2-[4-(2-Hydroxymethyl-6-methyl-phenylamino)-piperidin-1-yl]-N-(9-oxo-9H-fluoren-3-yl)-acetamide] gave a melting point of 113 °C.

In turn, `Cc1ccc(NC2CCN(CC(=O)Nc3ccc4c(c3)-c3ccccc3C4O)CC2)c(CO)c1` (stereo not drawn) [Example 4a, N-(9-Hydroxy-9H-fluoren-3-yl)-2-[4-(2-hydroxymethyl-4-methyl-phenylamino)-piperidin-1-yl]-acetamide] showed a melting point of 124 °C.

`Cc1cccc(CO)c1NC1CCN(CC(=O)Nc2ccc3c(c2)-c2ccccc2C3O)CC1` (stereo not drawn) [Example 5a, N-(9-Hydroxy-9H-fluoren-3-yl)-2-[4-(2-hydroxymethyl-6-methyl-phenylamino)-piperidin-1-yl]-acetamide] displayed a melting point of 133 °C. As to `Cc1ccc(NC2CCN(CC(=O)Nc3ccccc3)CC2)c(CO)c1` [Example 7a, 2-[4-(2-Hydroxymethyl-4-methyl-phenylamino)-piperidin-1-yl]-N-phenyl-acetamide], the melting point worked out at 128 °C.
